According to patent US20100311714A1, “1H-IMIDAZO[4,5-c]QUINOLINONE COMPOUNDS” (priority 2009, published 2010):
Read-outs that look alike come from different tables or passages of the source.

Target: T1, PI3K alfa (Homo sapiens, UniProt P42336)
T1 construct: His tag (C); made in house; host or cells: baculovirus BV1075; Tn5 (Trichoplusia ni) or TiniPro insect cells
Assay: PI3K alpha kinase assay (Kinase-Glo luminescence)
Assay type: biochemical
Method in brief: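 IC50 values come from a four-parameter logistic fit of percent inhibition at eight concentrations, typically 10 to 0.003 μM. Recombinant PI3Kα at 10 nM turned over 1 μM ATP with 10 μg/mL PI for 60 min at room temperature, and residual ATP was measured by Kinase-Glo.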

T1 sequence (P42336 with tags, fused parts or gaps limits assumed): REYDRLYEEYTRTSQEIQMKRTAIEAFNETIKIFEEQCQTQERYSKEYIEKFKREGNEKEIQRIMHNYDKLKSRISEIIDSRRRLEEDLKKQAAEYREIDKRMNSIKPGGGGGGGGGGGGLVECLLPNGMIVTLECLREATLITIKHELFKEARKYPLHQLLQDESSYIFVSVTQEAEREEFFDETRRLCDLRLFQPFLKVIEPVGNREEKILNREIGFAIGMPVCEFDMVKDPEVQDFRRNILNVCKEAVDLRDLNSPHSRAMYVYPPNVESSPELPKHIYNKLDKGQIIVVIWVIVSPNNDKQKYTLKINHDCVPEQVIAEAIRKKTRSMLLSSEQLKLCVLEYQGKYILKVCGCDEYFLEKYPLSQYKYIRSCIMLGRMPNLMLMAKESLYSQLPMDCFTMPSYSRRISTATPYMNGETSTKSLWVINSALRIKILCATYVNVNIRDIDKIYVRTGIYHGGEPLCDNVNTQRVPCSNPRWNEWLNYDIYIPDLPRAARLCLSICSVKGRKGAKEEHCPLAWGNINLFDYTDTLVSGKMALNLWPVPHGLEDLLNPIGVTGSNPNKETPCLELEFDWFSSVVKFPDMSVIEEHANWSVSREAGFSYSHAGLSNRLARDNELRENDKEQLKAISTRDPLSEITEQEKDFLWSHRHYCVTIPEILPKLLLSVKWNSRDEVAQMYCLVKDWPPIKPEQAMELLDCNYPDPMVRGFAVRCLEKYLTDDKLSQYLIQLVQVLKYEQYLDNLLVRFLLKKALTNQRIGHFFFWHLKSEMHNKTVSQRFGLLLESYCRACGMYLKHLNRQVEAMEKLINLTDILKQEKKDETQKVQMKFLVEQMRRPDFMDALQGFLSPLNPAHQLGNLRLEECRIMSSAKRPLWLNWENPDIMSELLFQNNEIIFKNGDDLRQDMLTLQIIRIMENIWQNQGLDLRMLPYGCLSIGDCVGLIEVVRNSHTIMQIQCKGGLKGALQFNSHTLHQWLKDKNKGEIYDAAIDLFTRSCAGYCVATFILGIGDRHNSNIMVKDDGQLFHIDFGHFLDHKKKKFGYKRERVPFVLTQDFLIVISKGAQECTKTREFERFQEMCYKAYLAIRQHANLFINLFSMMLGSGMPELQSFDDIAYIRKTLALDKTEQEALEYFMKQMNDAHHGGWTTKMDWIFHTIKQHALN

SMILES | IC50 (read-out: PI3Kalfa/IC50) [nM] | IC50 (read-out: EPK_PI3Kalfa/IC50) [nM]
CNc1cc(-c2ccc3ncc4c(c3c2)n(-c2cccnc2C)c(=O)n4C)cnc1C [Example 2.32, 3-Methyl-8-(6-methyl-5-methylamino-pyridin-3-yl)-1-(2-methyl-pyridin-3-yl)-1,3-dihydro-imidazo[4,5-c]quinolin-2-one] | – | 31
Cc1cccnc1-n1c(=O)n(C)c2cnc3ccc(-c4ccc(CO)nc4)cc3c21 [Example 3.9, 8-(6-Hydroxymethyl-pyridin-3-yl)-3-methyl-1-(3-methyl-pyridin-2-yl)-1,3-dihydro-imidazo[4,5-c]quinolin-2-one] | 383 | –
CNC(=O)c1ccc(-c2ccc3ncc4c(c3c2)n(-c2ncccc2C)c(=O)n4C)cc1 [Example 3.5, N-Methyl-4-[3-methyl-1-(3-methyl-pyridin-2-yl)-2-oxo-2,3-dihydro-1H-imidazo[4,5-c]quinolin-8-yl]-benzamide] | 53 | –
Cc1ncccc1-n1c(=O)n(C)c2cnc3ccc(-c4cncc(N)c4)cc3c21 [Example 2.25, 8-(5-Amino-pyridin-3-yl)-3-methyl-1-(2-methyl-pyridin-3-yl)-1,3-dihydro-imidazo[4,5-c]quinolin-2-one] | – | 64
CCOc1ccc(-c2ccc3ncc4c(c3c2)n(-c2ncccc2C)c(=O)n4C)cn1 [Example 3.6, 8-(6-Ethoxy-pyridin-3-yl)-3-methyl-1-(3-methyl-pyridin-2-yl)-1,3-dihydro-imidazo[4,5-c]quinolin-2-one] | 206 | –
Cc1ncccc1-n1c(=O)n(C)c2cnc3ccc(-c4ccc(C(N)=O)cc4)cc3c21 [Example 2.3, 4-[3-Methyl-1-(2-methyl-pyridin-3-yl)-2-oxo-2,3-dihydro-1H-imidazo[4,5-c]quinolin-8-yl]-benzamide] | 20 | –
CCOc1ncc(-c2ccc3ncc4c(c3c2)n(-c2ncccc2C)c(=O)n4C)cn1 [Example 3.1, 8-(2-Ethoxy-pyrimidin-5-yl)-3-methyl-1-(3-methyl-pyridin-2-yl)-1,3-dihydro-imidazo[4,5-c]quinolin-2-one] | 410 | –
Cc1cccnc1-n1c(=O)n(C)c2cnc3ccc(-c4cnc(N)c(C(F)(F)F)c4)cc3c21 [Example 3.12, 8-(6-Amino-5-trifluoromethyl-pyridin-3-yl)-3-methyl-1-(3-methyl-pyridin-2-yl)-1,3-dihydro-imidazo[4,5-c]quinolin-2-one] | 16 | –
Cc1cccnc1-n1c(=O)n(C)c2cnc3ccc(-c4ccc(C(N)=O)cc4)cc3c21 [Example 3.3, 4-[3-Methyl-1-(3-methyl-pyridin-2-yl)-2-oxo-2,3-dihydro-1H-imidazo[4,5-c]quinolin-8-yl]-benzamide] | 51 | –
Cc1ncccc1-n1c(=O)n(C)c2cnc3ccc(-c4cncc(N5CCC5)c4)cc3c21 [Example 2.29, 8-(5-Azetidin-1-yl-pyridin-3-yl)-3-methyl-1-(2-methyl-pyridin-3-yl)-1,3-dihydro-imidazo[4,5-c]quinolin-2-one] | – | 179

Continued, values first:

IC50 (read-out: PI3Kalfa/IC50) [nM] | IC50 (read-out: EPK_PI3Kalfa/IC50) [nM] | SMILES
47 | – | CN(C)c1ccc(-c2ccc3ncc4c(c3c2)n(-c2cccnc2)c(=O)n4C)cn1 [Example 5.3, 8-(6-Dimethylamino-pyridin-3-yl)-3-methyl-1-pyridin-3-yl-1,3-dihydro-imidazo[4,5-c]quinolin-2-one]
– | 33 | COCc1ncc(-c2ccc3ncc4c(c3c2)n(-c2ccc(N3CCC3)nc2C)c(=O)n4C)cc1OC(C)C [Example 23.2, 1-(6-Azetidin-1-yl-2-methyl-pyridin-3-yl)-8-(5-isopropoxy-6-methoxymethyl-pyridin-3-yl)-3-methyl-1,3-dihydro-imidazo[4,5-c]quinolin-2-one]
– | 18 | COC1CCN(c2ccc(-n3c(=O)n(C)c4cnc5ccc(-c6cncc(C(C)(C)O)c6)cc5c43)c(C)n2)C1 (stereo not drawn) [Example 28.1, 8-[5-(1-Hydroxy-1-methyl-ethyl)-pyridin-3-yl]-1-[6-(3-methoxy-pyrrolidin-1-yl)-2-methyl-pyridin-3-yl]-3-methyl-1,3-dihydro-imidazo[4,5-c]quinolin-2-one]
– | 44 | CNc1ncc(-c2ccc3ncc4c(c3c2)n(-c2ccc(N3CC[C@H](O)C3)nc2C)c(=O)n4C)cc1F [Example 32.2, 8-(5-Fluoro-6-methylamino-pyridin-3-yl)-1-[6-((S)-3-hydroxy-pyrrolidin-1-yl)-2-methyl-pyridin-3-yl]-3-methyl-1,3-dihydro-imidazo[4,5-c]quinolin-2-one]
– | 2 | Cc1nc(C(C)(C)O)ccc1-n1c(=O)n(C)c2cnc3ccc(-c4cncc(C(C)(C)C#N)c4)cc3c21 [Example 31.6, 2-(5-{1-[6-(1-Hydroxy-1-methyl-ethyl)-2-methyl-pyridin-3-yl]-3-methyl-2-oxo-2,3-dihydro-1H-imidazo[4,5-c]quinolin-8-yl}-pyridin-3-yl)-2-methyl-propionitrile]
– | 188 | CCOc1cc(-c2ccc3ncc4c(c3c2)n(-c2ccc(OCCOC)nc2C)c(=O)n4C)cnc1COC [Example 22.1, 8-(5-Ethoxy-6-methoxymethyl-pyridin-3-yl)-1-[6-(2-methoxy-ethoxy)-2-methyl-pyridin-3-yl]-3-methyl-1,3-dihydro-imidazo[4,5-c]quinolin-2-one]
74 | – | Cn1c(=O)n(-c2cccnc2)c2c3cc(-c4ccc(CO)nc4)ccc3ncc21 [Example 5.1, 8-(6-Hydroxymethyl-pyridin-3-yl)-3-methyl-1-pyridin-3-yl-1,3-dihydro-imidazo[4,5-c]quinolin-2-one]
– | 12 | Cc1nc(N(C)CCO)ccc1-n1c(=O)n(C)c2cnc3ccc(-c4cnc(N)c(C(F)(F)F)c4)cc3c21 [Example 26.1, 8-(6-Amino-5-trifluoromethyl-pyridin-3-yl)-1-{6-[(2-hydroxy-ethyl)-methyl-amino]-2-methyl-pyridin-3-yl}-3-methyl-1,3-dihydro-imidazo[4,5-c]quinolin-2-one]
– | 94 | CCOc1cc(-c2ccc3ncc4c(c3c2)n(-c2ccc(F)nc2C)c(=O)n4C)cnc1COC [Example 7.5, 8-(5-Ethoxy-6-methoxymethyl-pyridin-3-yl)-1-(6-fluoro-2-methyl-pyridin-3-yl)-3-methyl-1,3-dihydro-imidazo[4,5-c]quinolin-2-one]
67 | – | CCOc1ccc(-c2ccc3ncc4c(c3c2)n(-c2ccc(F)nc2C)c(=O)n4C)cn1 [Example 7.3, 8-(6-Ethoxy-pyridin-3-yl)-1-(6-fluoro-2-methyl-pyridin-3-yl)-3-methyl-1,3-dihydro-imidazo[4,5-c]quinolin-2-one]
– | 65.5 | CCNc1ncc(-c2ccc3ncc4c(c3c2)n(-c2ccc(N3CC[C@@H](O)C3)nc2C)c(=O)n4C)cc1COCC [Example 34.4, 8-(5-Ethoxymethyl-6-ethylamino-pyridin-3-yl)-1-[6-((R)-3-hydroxy-pyrrolidin-1-yl)-2-methyl-pyridin-3-yl]-3-methyl-1,3-dihydro-imidazo[4,5-c]quinolin-2-one]
– | 71 | Cc1nc(N2CC[C@H](O)C2)ccc1-n1c(=O)n(C)c2cnc3ccc(-c4cncc(OC(C)C)c4)cc3c21 [Example 32.8, 1-[6-((S)-3-Hydroxy-pyrrolidin-1-yl)-2-methyl-pyridin-3-yl]-8-(5-isopropoxy-pyridin-3-yl)-3-methyl-1,3-dihydro-imidazo[4,5-c]quinolin-2-one]
– | 28 | CCNc1ncc(-c2ccc3ncc4c(c3c2)n(-c2ccc(N3CC[C@@H](O)C3)nc2C)c(=O)n4C)cc1C(F)(F)F [Example 34.2, 8-(6-Ethylamino-5-trifluoromethyl-pyridin-3-yl)-1-[6-((R)-3-hydroxy-pyrrolidin-1-yl)-2-methyl-pyridin-3-yl]-3-methyl-1,3-dihydro-imidazo[4,5-c]quinolin-2-one]
– | 17 | CNc1ncc(-c2ccc3ncc4c(c3c2)n(-c2ccc(N3CC(O)C3)nc2C)c(=O)n4C)cc1C(F)(F)F [Example 29.4, 1-[6-(3-Hydroxy-azetidin-1-yl)-2-methyl-pyridin-3-yl]-3-methyl-8-(6-methylamino-5-trifluoromethyl-pyridin-3-yl)-1,3-dihydro-imidazo[4,5-c]quinolin-2-one]
– | 67 | CCOc1cc(-c2ccc3ncc4c(c3c2)n(-c2ccc(N3CCCC3)nc2C)c(=O)n4C)cnc1COC [Example 25.2, 8-(5-Ethoxy-6-methoxymethyl-pyridin-3-yl)-3-methyl-1-(2-methyl-6-pyrrolidin-1-yl-pyridin-3-yl)-1,3-dihydro-imidazo[4,5-c]quinolin-2-one]
27 | – | CNc1ccc(-c2ccc3ncc4c(c3c2)n(-c2ccc(F)nc2C)c(=O)n4C)cn1 [Example 7.4, 1-(6-Fluoro-2-methyl-pyridin-3-yl)-3-methyl-8-(6-methylamino-pyridin-3-yl)-1,3-dihydro-imidazo[4,5-c]quinolin-2-one]
– | 44 | COCc1ncc(-c2ccc3ncc4c(c3c2)n(-c2ccc(N3CCC3)nc2C)c(=O)n4C)cc1OC [Example 23.6, 1-(6-Azetidin-1-yl-2-methyl-pyridin-3-yl)-8-(5-methoxy-6-methoxymethyl-pyridin-3-yl)-3-methyl-1,3-dihydro-imidazo[4,5-c]quinolin-2-one]
– | 63 | CNc1ncc(-c2ccc3ncc4c(c3c2)n(-c2ccc(N(C)CCO)nc2C)c(=O)n4C)cn1 [Example 26.2, 1-{6-[(2-Hydroxy-ethyl)-methyl-amino]-2-methyl-pyridin-3-yl}-3-methyl-8-(2-methylamino-pyrimidin-5-yl)-1,3-dihydro-imidazo[4,5-c]quinolin-2-one]
32 | – | Cc1nc(F)ccc1-n1c(=O)n(C)c2cnc3ccc(-c4cnc5c(ccn5C)c4)cc3c21 [Example 7.2, 1-(6-Fluoro-2-methyl-pyridin-3-yl)-3-methyl-8-(1-methyl-1H-pyrrolo[2,3-b]pyridin-5-yl)-1,3-dihydro-imidazo[4,5-c]quinolin-2-one]
– | 23 | CNc1ncc(-c2ccc3ncc4c(c3c2)n(-c2ccc(C(C)(C)O)nc2C)c(=O)n4C)cc1F [Example 31.1, 8-(5-Fluoro-6-methylamino-pyridin-3-yl)-1-[6-(1-hydroxy-1-methyl-ethyl)-2-methyl-pyridin-3-yl]-3-methyl-1,3-dihydro-imidazo[4,5-c]quinolin-2-one]
